No end group written: not given here.
What follows are sequences tested on hMSCs (assay: STRO-1 stemness marker expression in hMSCs (immunostaining, ImageJ quantification)). Conditions: SEQ ID NO: 1 to 49 tested in combination with a bioactive carrier (titanium, ceramics, PEEK, hydrogel, etc.).
Type: cell-based, Human
Experimental: The cells were first fixed for 20 min with 4% paraformaldehyde/PBS at 4° C. After fixation, the cells were permeabilized in PBS containing 1% Triton X-100 for 15 min. Runx2, Osterix, Stro-1, Vinculin, Phalloidin, Osteopontin, Sox2, Sox9 antibodies were visualized by treating the cells with 1% (v/v) specific monoclonal antibodies for 1 hour at 37° C. Then the samples were incubated with Alexa fluor® 568 or 647 (F(ab′)2 fragment of IgG(H+L)) during 30 min at room temperature. The cell nuclei were counterstained in 20 ng/mL DAPI for 10 min at room temperature.
For this type of quantification the freeware image analysis ImageJ® software was used. The raw image was first converted to an 8-bit file, and then the unsharp mask feature was used (settings 1:0.2) to remove the image background (rolling ball radius 10). After smoothing, the resulting image, which appears similar to the original photomicrograph but with minimal background, was then converted to a binary image by setting a threshold. Threshold values were determined empirically by selecting a setting, which gave the most accurate binary image for a subset of randomly selected photomicrographs. The cell area was determined by manual delineation on raw fluorescent images. Total contact area and mean contact area per cell were calculated by “analyse particles” in ImageJ®. A minimum of 30 cells per condition were analyzed. Stro-1, CD-34+, and CD-105 expressions were determined using this procedure.
hMSCs were cultured on conventional cell culture plastic plates with or without the presence in the cell culture media of different GFR-binding compounds as defined hereins (SEQ ID NO: 50 to 104) in solution. […] This was probed by Stro-1 immunostaining after cell fixation as described in the Methods section. The quantification of Stro-1 positive contact numbers and areas was performed as described in the Methods section. A minimum of 30 cells per condition were analyzed.
RMSD values are always calculated for a GFR-binding peptide sequence exempt from any bioactive-carrier-affinity-containing group as defined herein (e.g. cysteine, WWFWG, GTPGP, etc. . . . ). When needed i.e. when attachment to a bioactive carrier is contemplated, the bioactive-carrier-affinity-containing group is then present in the GFR-binding compound when it is biologically tested. Using the method detailed in the description, the RMSD of 57 previously reported peptide sequences have been determined (Table 6) and correlated with the expression of STRO-1 after grafted on a PET surface via a procedure as already described above. […] One should note that it is commonly admitted that the expression of STRO-1 in a cell is indicative of a cell that is in a substantially non-differentiated state and the decrease of its expression of at least about 20% is indicative of a cell that has started a processes of differentiation but which may not result in the differentiation of the cell. A decrease of more than 50% would be indicative of the presence of a significant shift towards a differentiated state. A decrease of more than 70% would be indicative of the presence of a very important shift towards a differentiated state. A sustained decrease (e.g. for at least 96 h) of more than 50% or 70% would be indicative of the presence of an even more important shift towards a differentiated state.
Likewise, using the method detailed in the description, the RMSD of 87 GFR-binding peptide sequence representatives of the invention have been determined (Table 7) and correlated with the expression of STRO-1 after grafted on a PET surface via a procedure as already described above. SEQ ID NO: 1 to 49 were tested in combination with a bioactive carrier as defined above in the Examples Section (i.e. titanium, ceramics, PEEK, hydrogel, etc. . . . ), whereas SEQ ID NO: 1143 to 1180 were tested in solution.
With “GTPGPAAPASSSVPARLSAISMLYL (not fully specified) [SEQ ID NO: 35]” the STRO-1 expression was 19%. “GTPGPPSSVPTKLSPISVLYK (GTPGPPXXVPTKLSPISVLYK; GFR-binding peptide; MOD_RES (7)..(8): Xaa is C or S) [SEQ ID NO: 30]” was tested, and the STRO-1 expression was 26%. ASASPSSVSQDLSAISMLYL [SEQ ID NO: 15] showed an STRO-1 expression of 13%. With NDEGLESAPTEENAISVLYF [SEQ ID NO: 4] the STRO-1 expression was 22%. AVPKASSAPTKLSAISMLYL [SEQ ID NO: 19] was tested, and the STRO-1 expression was 19%. Work on “GTPGPVPQELEPLTILYY (GFR-binding peptide) [SEQ ID NO: 24]” yielded an STRO-1 expression of 16%. For “GTPGPNDEGLESAPTGQNAISVLYF (GTPGPNDEGLEXAPTGQNAISVLYF; GFR-binding peptide; MOD_RES (12)..(12): Xaa is C or S) [SEQ ID NO: 31]”, the STRO-1 expression was 32%. In the case of NDEGLESAPTGQNAISVLYF [SEQ ID NO: 5], the STRO-1 expression is reported as 27%. For KVGKASSVPTKLEPLTILYY [SEQ ID NO: 13], the STRO-1 expression was 26%. HVPKPSSVPTKLSPISVLYK [SEQ ID NO: 16] showed an STRO-1 expression of 23%. In the case of KIPKASSVPTELSATSVLYY [SEQ ID NO: 6], the STRO-1 expression is reported as 25%. “GTPGPASSVPTKLSAISMLYL (GTPGPAXXVPTKLSAISMLYL; GFR-binding peptide; MOD_RES (7)..(8): Xaa is C or S) [SEQ ID NO: 26]” was tested, and the STRO-1 expression was 23%.

Same assay, conditions: SEQ ID NO: 1 to 49 tested in combination with a bioactive carrier (titanium, ceramics, PEEK, hydrogel, etc.), listed as 47
In the case of NDEGLESVPAEESPISILYI [SEQ ID NO: 47], the STRO-1 expression is reported as 18%.

Same assay, conditions: SEQ ID NO: 1143 to 1180 tested in solution
In the case of “RVPSTSSTQVKMSAISMLYL (GFR-binding peptide) [SEQ ID NO: 1155]”, the STRO-1 expression is reported as 17%. With “KIPKASSVPTKMKPLSVLYV (GFR-binding peptide) [SEQ ID NO: 1168]” the STRO-1 expression was 21%. “RVPSTSSAPTKMKPLSMLYV (GFR-binding peptide) [SEQ ID NO: 1169]” gave an STRO-1 expression of 22%. In the case of “GIPEPSSAPTELSATSILYY (GFR-binding peptide) [SEQ ID NO: 1146]”, the STRO-1 expression is reported as 20%. “GIPEPSSAPTRLEPISMLYL (GFR-binding peptide) [SEQ ID NO: 1164]” showed an STRO-1 expression of 16%. Work on “KIPKASSVSQQLEPISTLYL (GFR-binding peptide) [SEQ ID NO: 1165]” yielded an STRO-1 expression of 17%. “AASKASSVPEKMRPVQTRKI (GFR-binding peptide) [SEQ ID NO: 1179]” gave an STRO-1 expression of 32%. For “GIPEPSSVSQEESSLSTLFF (GFR-binding peptide) [SEQ ID NO: 1156]”, the STRO-1 expression was 19%. With “NDEGLESVPEDLSSLSVLFF (GFR-binding peptide) [SEQ ID NO: 1143]” the STRO-1 expression was 23%. In the case of “KIPKASSVPAQLEPLPIVYY (GFR-binding peptide) [SEQ ID NO: 1171]”, the STRO-1 expression is reported as 28%. Sequence “KIPKASSTQVGQSATSILYY (GFR-binding peptide) [SEQ ID NO: 1161]” has an STRO-1 expression of 27%. “RVPSTSSVPEKMEPLTMLYY (GFR-binding peptide) [SEQ ID NO: 1173]” gave an STRO-1 expression of 18%.

Same assay, conditions: grafted on a PET surface
Sequence “VPTKLSPISILYLDKGVVTYKFKYEGMSVAECGCR (Previously reported sequence) [SEQ ID NO: 1108, reference compound]” has an STRO-1 expression of 80%. In the case of “SVPAVCSATSATGPYSSVTVTSWPSIVATGGTT (Previously reported sequence) [SEQ ID NO: 1114, reference compound]”, the STRO-1 expression is reported as 92%. “PIIYYVGRNVRVEQLSNMVVRRA (Previously reported sequence) [SEQ ID NO: 1088, reference compound]” was tested, and the STRO-1 expression was 98%. Work on “DKPEESSSTPTHAQCICSSLSEAIVSSVLSTRLVLSQISLTRAKRAFE (Previously reported sequence) [SEQ ID NO: 1121, reference compound]” yielded an STRO-1 expression of 87%. With “PIIYYVGRNVRVEQLSNMVVRA (Previously reported sequence) [SEQ ID NO: 1087, reference compound]” the STRO-1 expression was 92%. With “SHQSAGDSIKSPARHSAPTHQEPLPD (Previously reported sequence) [SEQ ID NO: 1099, reference compound]” the STRO-1 expression was 91%. In the case of “CCAPTELSAISVLYFDDSSNVILKKYRNMVVRACGCR (Previously reported sequence) [SEQ ID NO: 1139, reference compound]”, the STRO-1 expression is reported as 81%. With “VGAAWWLREQGSPINTLAVPA (Previously reported sequence) [SEQ ID NO: 1103, reference compound]” the STRO-1 expression was 88%. With “LSLLAPPEPVWNHETSYGSDCHVPTNVNAISKMIDKSNHQTG (Previously reported sequence) [SEQ ID NO: 1125, reference compound]” the STRO-1 expression was 93%. In the case of “TPTYSRPVQKAELTR (Previously reported sequence) [SEQ ID NO: 1091, reference compound]”, the STRO-1 expression is reported as 97%. With “SVPAVCSATSATGPYSTATNTVVVPSIVATGGTT [SEQ ID NO: 1115, reference compound]” the STRO-1 expression was 92%. With “VPTKLSPISILYKDDMGVPTYKFKYEGMSVAECGCR (Previously reported sequence) [SEQ ID NO: 1109, reference compound]” the STRO-1 expression was 82%. In the case of “TKPLSSLLFPNWNTTTTPTPPRP (Previously reported sequence) [SEQ ID NO: 1101, reference compound]”, the STRO-1 expression is reported as 91%. In the case of “SPISILVVPELDASLPEKRPSLDGFEALLVYNAPKA (Previously reported sequence) [SEQ ID NO: 1106, reference compound]”, the STRO-1 expression is reported as 82%. “VHLLKPHAVPKACCAPTKLSATSVLYYDSSNNVILRKHRNMVVRACGCH (Previously reported sequence) [SEQ ID NO: 1118, reference compound]” was tested, and the STRO-1 expression was 88%. With “MAAQDEWRDAITLTMGRDLKKVPQHLNAISVIDPVT (Previously reported sequence) [SEQ ID NO: 1124, reference compound]” the STRO-1 expression was 83%. “TCCVPELSAISMLYLDEN (Previously reported sequence) [SEQ ID NO: 1131, reference compound]” showed an STRO-1 expression of 84%. With “IKSPARHSAPTHQEPLP (Previously reported sequence) [SEQ ID NO: 1097, reference compound]” the STRO-1 expression was 98%. “KIPKPSSAPTELSAISMC (Previously reported sequence) [SEQ ID NO: 1129, reference compound]” was tested, and the STRO-1 expression was 78%. “SATSRLALSDVPAELAA (Previously reported sequence) [SEQ ID NO: 1112, reference compound]” was tested, and the STRO-1 expression was 98%. “MSRVLFEPLTFLQTGSGLPDEKTLG (Previously reported sequence) [SEQ ID NO: 1096, reference compound]” gave an STRO-1 expression of 94%. “VEQLSNMVVK (Previously reported sequence) [SEQ ID NO: 1086, reference compound]” gave an STRO-1 expression of 98%. Sequence “SFRTARANAPTGRSSLSGEKEQQEASTHS (Previously reported sequence) [SEQ ID NO: 1120, reference compound]” has an STRO-1 expression of 91%. “TPTVVSATSL (Previously reported sequence) [SEQ ID NO: 1111, reference compound]” showed an STRO-1 expression of 98%. “LGIAAIIFLQQVPAAFSATSPPG (Previously reported sequence) [SEQ ID NO: 1113, reference compound]” gave an STRO-1 expression of 97%.

— patent publication US11578110B2, “Compounds for inducing tissue formation and uses thereof” (HISTIDE AG, priority 2015, dated 2023)
